Experimental data: ChEMBL document CHEMBL1125208, “Applications of neural networks in quantitative structure-activity relationships of dihydrofolate reductase inhibitors” (J Med Chem, 1991)

Target: T1, Dihydrofolate reductase (Mus musculus) (UniProt P00375)
T1 sequence (whole entry): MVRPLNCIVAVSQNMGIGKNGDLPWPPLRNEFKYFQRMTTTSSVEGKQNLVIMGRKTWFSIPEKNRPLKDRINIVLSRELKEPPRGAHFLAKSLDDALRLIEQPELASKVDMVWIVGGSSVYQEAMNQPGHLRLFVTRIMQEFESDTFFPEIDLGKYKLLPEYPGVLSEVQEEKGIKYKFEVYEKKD
Assay: Inhibition of dihydrofolate reductase from L1210 leukemia tumors

| Compound | Log 1/C |
| --- | --- |
| CC1(C)N=C(N)N=C(N)N1c1ccc(OCCCNC(=O)Nc2cccc(S(=O)(=O)F)c2)c(Cl)c1 | 7.28 |
| CC1(C)N=C(N)N=C(N)N1c1ccc(CCCCc2cccc(Cl)c2S(=O)(=O)F)c(Cl)c1 | 8.2 |
